Consider six compounds from patent US20250352555A1, “METHOD OF INCREASING IMMUNE CELL ACTIVATION AND/OR TREATING CANCER USING DIBENZOXAZEPINONES” (VASCULAR THERAPEUTICS PTY LTD, priority 2022, published 2025).

Where two headings read alike, the source gives them in different places.

In data set [1] the test system is resistant melanoma PDX. As to conditions: resistant melanoma PDX model; cited from earlier work.
For data set [2], the system named is PD-1. Nature of the data set: Flow cytometry with anti-PD-1 antibodies, Jurkat T cells. The data set is classed as cell-based, human. As to conditions: same concentration range as BT2, 48 h (FIG. 17B). How it is done:
Flow cytometry with anti-PD-1 antibodies. Jurkat T cells were grown in 6 well plates containing RPMI 1640 and 10% FBS. After 24 h, the cells were treated with various concentrations of BT2 or BT3 for 48 h. Alternatively, the cells were incubated with 3 μM BT2 for various times. After treatment, the cells were washed with PBS, and centrifuged at 300×g for 5 min, and resuspended at 5×10^6 cells/ml. The cells were then incubated with BV421 conjugated mouse anti-human CD279 (PD-1) (BD, cat. no. 562516) or BV421 conjugated mouse IgG1 (BD, cat. no. 562438) for 45 min at 22° C. Cells were then washed twice with 1 ml of Stain Buffer, centrifuged and pellets were resuspended in 0.5 ml Stain Buffer. Stained cell suspensions were analyzed by flow cytometry using a BD FACSCanto (II).
Jurkat T cells express PD-1 (Yi et al., 2023) and are widely used as model human T cells (e.g., Repas et al., 2022). […] BT2's effects were not only dose-dependent but time-dependent. BT2 (3 μM) inhibited PD-1 levels by 50% after 24 h and by 80% after 48 h (FIG. 17C).

Data set [3] concerns non-small cell lung carcinoma. The following applies: non-small cell lung carcinoma-bearing mice; cited from earlier work.
Data set [4] concerns advanced melanoma. The following applies: cited from earlier work; for 5 year overall survival: advanced melanoma.
Data set [5] concerns PD-1. Put plainly: Western blotting for PD-1, Jurkat T cells. As to conditions: 24 h; for PD-1 expression (Western blot): various concentrations. The data set is classed as cell-based, human. How it is done:
(§1) Western blotting. Cells were treated with compounds and times indicated and total cell lysates were prepared in RIPA buffer. Lysates (10 μg) were resolved by SDS-PAGE and transferred to Immobilon-P polyvinylidene difluoride (PVDF) membranes (Millipore, USA).
(§2) Membranes were blocked with 5% skim milk and incubated with rabbit monoclonal anti-c-Jun (Abcam, cat. no. ab32137; mouse, rat and human reactive) antibody, rabbit monoclonal anti-PD-1 (Abcam, cat. no. ab214421) antibody, mouse monoclonal β-actin antibody (Sigma-Aldrich, cat. no. A5316), anti-phospho-SAPK/JNK (Thr^183/Tyr^185) (98F2) (CST, cat. no. 4671) antibody, anti-phospho-p44/42 MAPK (ERK1/2) (Thr^202/Tyr^204) (D13.14.4E) (CST, cat. no. 4370) antibody, anti-phospho-p38 MAPK (Thr^180/Tyr^182) (D3F9) (CST, cat. no. 4511) antibody, anti-SAPK/JNK antibody (CST, cat. no. 9252), anti-p44/42 MAPK (ERK1/2) (137F5) antibody (CST, cat. no. 4695), anti-p38 MAPK antibody (CST, cat. no. 9212), anti-DUSP8 antibody (Abcam, cat. no. ab198175) or anti-c-MAF (BLR045F) antibody (Abcam, cat. no. ab243901). This was followed by incubation with horseradish peroxidase-conjugated secondary goat anti-rabbit (DAKO, cat. no. P0448) or goat anti-mouse (DAKO, cat. no. P0447) antibody. Chemiluminescence was detected using the Western Lightning Chemiluminescence system (Thermo Scientific, USA) and ImageQuant™ LAS 4000 biomolecular imager (GE Healthcare Life Sciences, USA). Band intensity in images generated with the LAS 4000 was quantified using NIH Image J.
For orientation: A western blot detects proteins with antibodies after separation by electrophoresis.

Data set [6] has as its system A375 cells. Nature of the data set: Apoptosis, flow cytometry with Annexin V-FITC, A375. The data set is classed as cell-based, human. The following applies: 1 μM, 24 h. As to the method: (§3) Flow cytometry with Annexin V-FITC. Cells were seeded into 6 well plates in normal culture medium containing 10% FBS. After culturing overnight, the cells were incubated in complete medium containing vehicle, BT2 or SCH772984 at 1 μM and left for 24 h. The culture medium was removed and the cells were washed with PBS. Accutase (Stem Cell Technologies, cat. no. 07920) was used to detach the cells. The cells were then washed and centrifuged at 300 g for 5 min and resuspended at 1×10^6 cells/ml in 500 μl of 1× binding buffer (Annexin V-FITC Apoptosis Staining/Detection Kit, Abcam, cat. no. ab14085). The cells were transferred to 12×75 mm tubes and annexin V-FITC/propidium iodide (PI) was added and incubated for 5 min at 22° C. protected from light. Stained cell suspensions were analyzed by flow cytometry using a BD LSRFortessa X20.
(§4) The morphology of A375 and MeWo cells exposed to 1 μM of BT2 or SCH772984 for 24 h was also assessed.

Data set [7] relates to p-ERK (Thr^202/Tyr^204). Nature of the data set: Western blotting for p-ERK, MeWo melanoma cells. The data set is classed as cell-based, human. The following applies: 10 or 100 nM, 24 h. As to the method:
as §1
as §2, with “4695), anti-p38 MAPK antibody (CST, cat. no. 9212), anti-DUSP8 antibody (Abcam, cat. no. ab198175) or anti-c-MAF (BLR045F) antibody (Abcam, cat. no. ab243901). This was followed by incubation with horseradish peroxidase-conjugated secondary goat anti-rabbit (DAKO, cat. no. P0448) or goat anti-mouse (DAKO, cat. no. P0447) antibody.” left out
(§5) The effect of BT2 on ERK phosphorylation (p-ERK) was evaluated in human melanoma cells given that MAP kinase activation is key to melanoma progression and the paucity of clinically approved ERK inhibitors. […]

In data set [8] the test system is MeWo cells. Nature of the data set: Apoptosis, flow cytometry with Annexin V-FITC, MeWo. In kind it is cell-based, human. As to conditions: 1 μM, 24 h. As to the method:
as §3, §4
In general terms: Flow cytometry measures light scatter and fluorescence of single cells or particles in a stream.

Data set [9] deals with p-ERK (Thr^202/Tyr^204). Put plainly: Western blotting for p-ERK, A375 melanoma cells. In kind it is cell-based, human. The following applies: 10 or 100 nM, 24 h. How it is done:
as §1
as §2, with “4695), anti-p38 MAPK antibody (CST, cat. no. 9212), anti-DUSP8 antibody (Abcam, cat. no. ab198175) or anti-c-MAF (BLR045F) antibody (Abcam, cat. no. ab243901). This was followed by incubation with horseradish peroxidase-conjugated secondary goat anti-rabbit (DAKO, cat. no. P0448) or goat anti-mouse (DAKO, cat. no. P0447) antibody.” left out
as §5

Regarding `Cc1cnc(NC2CCOCC2)nc1-n1cnc(C(=O)N[C@H](CN)c2cc(F)cc(Cl)c2)c1` [ASN007], the efficacy entry in data set [1] is on record as “demonstrates efficacy”.
In the case of `CCN1C(=O)c2cc(N)ccc2Oc2ccccc21` [BT3, 2-amino-10-ethyldibenzo[b,f][1,4]oxazepin-11(10H)-one], the “effect on PD-1 expression” value in [2] is given as “no inhibitory effect”.
Regarding `O=C(NOC[C@H](O)CO)c1ccc(F)c(F)c1Nc1ccc(I)cc1F` [PD0325901], in [3], the “effect on efficacy of anti-PD-1 antibodies” value is “can enhance the efficacy of anti-PD-1 antibodies”.
As for pembrolizumab: anti-PD-1 antibody, the “patients with treatment-related adverse events” value in data set [4] (advanced melanoma patients) is 86%. In addition, the “5 year overall survival” value in data set [4] (all patients) is 34%; in data set [4] (treatment-naive patients) it was 41%.
With `COc1cccc(-c2cc(=O)c3ccccc3o2)c1N` [PD98059], in [5], the “PD-1 expression (Western blot)” value is reported as “no effect on PD-1 expression”.
Regarding `O=C(Nc1ccc2[nH]nc(-c3ccncc3)c2c1)[C@@H]1CCN(CC(=O)N2CCN(c3ccc(-c4ncccn4)cc3)CC2)C1` [SCH772984, reference compound], the “apoptosis (Annexin V-FITC+ PI−)” value in [6] and in data set [8] was “no or less potent pro-apoptotic effects” in each case. Also, the “ERK phosphorylation (p-ERK, Western blot)” value in [7] and in data set [9] was “suppressed ERK phosphorylation” each time. In data set [5] (Western blot), the “potency in suppressing PD-1 expression, fold less potent than BT2” value is listed as above 10 fold. Moreover, in data set [5], the “PD-1 expression (Western blot)” value is “suppressed PD-1 expression”.
